Values quoted from earlier work, collected in US10968292B2, “Synthetic polymer film whose surface has microbicidal activity, photocurable resin composition, manufacturing method of synthetic polymer film, and sterilization method with use of surface of synthetic polymer film” (SHARP KABUSHIKI KAISHA, priority 2017, dated 2021).

Conditions: monomers; YES/NO

Compound	Water Solubility
polyethylene glycol (200) diacrylate [Example M282]	YES
polyethylene glycol (400) diacrylate [Example M280]	YES

Same assay, conditions: organic acids; water at about 20° C. to about 25° C.

Compound	Water Solubility (solubility index)
O=C(O)CCCCCCCCCCC(=O)O [Dodecanedioic Acid, dodecanedioic acid]	7 (Practically insoluble • Not less than 10000 mL)
O=P(O)(O)Oc1ccccc1 [PPA, phenylphosphate]	1 (Very soluble • Less than 1 mL)
O=C(O)CCCCCCC(=O)O [Suberic Acid, octanedioic acid]	5 (Slightly soluble • Equal to or greater than 100 mL and less than 1000 mL)
Cc1cc(C)c(C(=O)O)c(C)c1 [TMBA, 2,4,6-trimethylbenzoic acid]	6 (Very slightly soluble • Equal to or greater than 1000 mL and less than 10000 mL)
